Common to all, as to test: Eurofins kinase panel
Format in all cases: biochemical

One assay deals with ROCK-II(r).
The target of another assay is T1, MARK4(h) (Homo sapiens, UniProt Q96L34).
T1 construct: purchased Eurofins (KinaseProfiler)
T1 sequence (Q96L34 1-752): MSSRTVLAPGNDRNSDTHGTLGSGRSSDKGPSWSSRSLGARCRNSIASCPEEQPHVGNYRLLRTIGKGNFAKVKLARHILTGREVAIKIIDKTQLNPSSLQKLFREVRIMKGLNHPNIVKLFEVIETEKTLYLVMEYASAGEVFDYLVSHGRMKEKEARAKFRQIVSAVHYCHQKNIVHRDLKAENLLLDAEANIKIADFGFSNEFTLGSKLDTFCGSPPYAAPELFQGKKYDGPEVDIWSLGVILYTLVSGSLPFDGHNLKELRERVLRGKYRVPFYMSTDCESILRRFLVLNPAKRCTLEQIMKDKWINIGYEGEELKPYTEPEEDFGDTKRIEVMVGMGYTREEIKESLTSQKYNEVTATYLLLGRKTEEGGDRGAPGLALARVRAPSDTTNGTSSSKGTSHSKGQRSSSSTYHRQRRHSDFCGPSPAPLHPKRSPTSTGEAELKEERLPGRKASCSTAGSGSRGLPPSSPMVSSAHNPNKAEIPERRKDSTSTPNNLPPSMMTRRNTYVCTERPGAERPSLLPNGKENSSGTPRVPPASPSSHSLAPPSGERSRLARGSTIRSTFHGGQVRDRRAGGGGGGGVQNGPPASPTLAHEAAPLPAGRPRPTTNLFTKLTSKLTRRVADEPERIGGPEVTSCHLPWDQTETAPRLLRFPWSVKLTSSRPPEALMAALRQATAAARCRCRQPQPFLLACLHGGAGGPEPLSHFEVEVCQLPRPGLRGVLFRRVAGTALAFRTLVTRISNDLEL
The following applies: read-out: Inhibition rate (%).

The target in a further assay is T2, ULK2(h) (Homo sapiens, UniProt Q8IYT8).
T2 construct: purchased Eurofins (KinaseProfiler)
T2 sequence (Q8IYT8 1-1036): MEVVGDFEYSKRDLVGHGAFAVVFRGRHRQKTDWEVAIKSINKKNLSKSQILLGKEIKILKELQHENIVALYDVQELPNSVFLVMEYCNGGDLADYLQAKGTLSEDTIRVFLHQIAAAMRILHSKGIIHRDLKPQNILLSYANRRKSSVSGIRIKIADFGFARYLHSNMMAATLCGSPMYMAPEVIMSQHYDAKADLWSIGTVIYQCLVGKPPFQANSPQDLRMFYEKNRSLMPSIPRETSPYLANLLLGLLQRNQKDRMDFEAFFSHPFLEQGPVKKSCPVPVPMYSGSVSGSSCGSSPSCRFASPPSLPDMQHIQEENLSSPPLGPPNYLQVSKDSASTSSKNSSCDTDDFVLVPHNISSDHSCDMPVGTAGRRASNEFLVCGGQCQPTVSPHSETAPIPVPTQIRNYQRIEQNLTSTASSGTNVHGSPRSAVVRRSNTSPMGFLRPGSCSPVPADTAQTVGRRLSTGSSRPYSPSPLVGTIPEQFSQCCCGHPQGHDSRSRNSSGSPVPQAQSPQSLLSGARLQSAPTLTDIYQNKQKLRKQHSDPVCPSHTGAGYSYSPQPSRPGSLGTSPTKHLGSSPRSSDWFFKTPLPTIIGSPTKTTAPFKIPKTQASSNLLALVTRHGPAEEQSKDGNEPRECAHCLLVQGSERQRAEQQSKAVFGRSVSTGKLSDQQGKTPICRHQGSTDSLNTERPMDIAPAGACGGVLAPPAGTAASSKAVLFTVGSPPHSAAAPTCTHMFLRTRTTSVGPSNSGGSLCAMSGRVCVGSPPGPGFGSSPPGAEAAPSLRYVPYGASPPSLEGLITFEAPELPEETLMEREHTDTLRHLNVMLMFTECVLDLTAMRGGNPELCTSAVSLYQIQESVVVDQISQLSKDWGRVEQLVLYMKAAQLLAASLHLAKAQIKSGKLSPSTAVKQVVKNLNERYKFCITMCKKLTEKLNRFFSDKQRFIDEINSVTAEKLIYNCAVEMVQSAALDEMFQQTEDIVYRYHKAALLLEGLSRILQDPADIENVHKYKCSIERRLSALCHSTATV
The following applies: read-out: Inhibition rate (%).

For a further assay, the target named is T3, CLK1(h) (Homo sapiens, UniProt P49759).
T3 construct: purchased Eurofins (KinaseProfiler)
T3 sequence (P49759 whole entry): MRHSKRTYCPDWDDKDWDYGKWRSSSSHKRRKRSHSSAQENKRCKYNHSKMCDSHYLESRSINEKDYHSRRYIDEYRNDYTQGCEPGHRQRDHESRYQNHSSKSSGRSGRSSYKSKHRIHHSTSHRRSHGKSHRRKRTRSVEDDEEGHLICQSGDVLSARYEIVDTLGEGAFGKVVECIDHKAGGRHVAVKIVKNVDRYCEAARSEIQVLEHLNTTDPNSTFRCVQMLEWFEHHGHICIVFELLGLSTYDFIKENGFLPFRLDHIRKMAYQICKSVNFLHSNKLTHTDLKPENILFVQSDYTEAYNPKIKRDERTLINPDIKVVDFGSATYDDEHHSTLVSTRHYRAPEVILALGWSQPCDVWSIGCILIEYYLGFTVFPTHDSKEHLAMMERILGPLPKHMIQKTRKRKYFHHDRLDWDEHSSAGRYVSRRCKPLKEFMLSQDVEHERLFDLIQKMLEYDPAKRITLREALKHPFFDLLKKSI
The following applies: read-out: Inhibition rate (%).

Molecules are shown by their SMILES.

What is called inhibition is the drop in the measured response relative to a control, in per cent. Take `COc1cc(OC)c(Cl)c(-c2ccc3c(NC(=O)c4ccc(N5CCNC(C)(C)C5)cc4)n[nH]c3n2)c1Cl` [3D185]: the figures for the “Inhibition rate (%)” value in the assay on ROCK-II(r) (10 nM), in the assay on ROCK-II(r) (100 nM) and in the assay on ROCK-II(r) (1000 nM) were -3%, 0% and -1%, respectively. Further, the inhibition at 0.01 µM on MARK4(h) (10 nM) was 3%; at ULK2(h) (10 nM), 4%; at CLK1(h) (10 nM) it was -7%. The inhibition at 0.1 µM was 5% at MARK4(h) (100 nM), 14% at ULK2(h) (100 nM) and -5% on CLK1(h) (100 nM). Besides, the inhibition at 1 µM at MARK4(h) (1000 nM) is -2%; on ULK2(h) (1000 nM), 22%; on CLK1(h) (1000 nM), 7%.

(Values after publication PMC6704710, “Preclinical evaluation of 3D185, a novel potent inhibitor of FGFR1/2/3 and CSF-1R, in FGFR-dependent and macrophage-dominant cancer models” (Journal of Experimental & Clinical Cancer Research : CR, 2019).)
